These are literature values, as cited in patent publication US5843937A (priority 1996, dated 1998).

The conditions of series [1]: both in vitro and in experimental animals; cited from earlier work.
The conditions of series [2]: prior compounds; experimental animals (CC-1065); cited from earlier work.
Series [3] deals with double-stranded B-DNA. The settings on record: cited from earlier work.

As to `COc1c(O)c2c(c3cc(C(=O)N4CCc5c4c(O)c(OC)c4[nH]c(C(=O)N6CC7CC78C6=CC(=O)c6[nH]cc(C)c68)cc54)[nH]c13)CCN2C(N)=O` (stereo not shown) [CC-1065], the “antitumor and antimicrobial activity” value in series [1] was “potent antitumor and antimicrobial activity both in vitro and in experimental animals”. Moreover, the delayed death entry in series [2] is reported as “causes delayed death in experimental animals”. Besides, the alkylation site result in series [3] (by its CPI left-hand unit) is given as “alkylates the N3 position of the 3'-adenine”. Moreover, the “sequence preference of DNA binding” value in series [3] (within the minor groove) is 5'-d(A/GNTTA)-3' and 5'-d(AAAAA)-3'.
